According to patent US20040034045A1, “Inhibitors of thrombin induced platelet aggregation” (Parker Hughes Institute, priority 2000, published 2004):

Tests used:
platelets = test: Serotonin release from thrombin-stimulated platelets; format: cell-based, human; settings: treated, N=4
Experimental: Release of serotonin from thrombin (0.1 U/mL)-stimulated platelets was measured using a serotonin detection kit (Immunotech, Marseille, France) according to the manufacturer's specifications. Sonnicated platelets were used for measurement of the total serotonin content of platelets.

[1] = Plasma concentration in mice; format: in vivo
[2] = tested on: thrombin-induced platelet aggregation; test: Thrombin-induced platelet aggregation (platelet aggregometer); format: cell-based, human
Experimental: Platelet-rich plasma (PRP) was purchased from the Memorial Blood Bank (Minneapolis, Minn.) and used according to the guidelines of the Parker Hughes Institute Human Subjects Committee. The PRP samples were treated with varying concentrations of WHI-P131 for 20 minutes at 37° C. Control PRP samples were treated with vehicle alone. The treated PRP samples were diluted 1:4 with sterile normal saline and platelets were stimulated with thrombin (0.1 U/mL, Chronolog Inc., Philadelphia, Pa.) under stirred conditions. Platelet aggregation was monitored in a platelet aggregometer (Model 560 Dual Chamber Instrument, Chronolog Inc., Philadelphia, Pa.) for 5 minutes. The IC50 values for WHI-P131-mediated inhibition of agonist-induced platelet aggregation were calculated by non-linear regression analysis using Graphpad Prism software version 2.0 (Graphpad Software, Inc., San Diego, Calif.).

[3] = tested on: thromboplastin-induced thromboembolism; test: Thromboplastin-induced thromboembolism model; format: in vivo
Experimental: Mice (4-6 week old males, International Cancer Research (IRC)) were treated […] with 200 μL of vehicle (PBS supplemented with 10% DMSO), varying doses of WH-P131 in 200 μL of vehicle (administered intraperitoneally (i.p.) 30 minutes prior to the thromboplastin challenge). The mice were challenged with 25 mg/kg thromboplastin (Sigma, St. Louis, Mo.) via a bolus intravenous injection into the tail vein as previously described (Sato, et.al., 1998 Jpn J. Pharmacol 78(2), 191-7).
At the time of thromboembolism-related death after the thromboplastin injection or elective sacrifice at 48 hours using ketamine/xylazine, all mice were perfused with PBS followed by 4% phosphate buffered formalin. PBS and formalin were pumped through the left ventricle of the heart and allowed to exit through a 3 mm incision through the anterior wall of the right ventricle. During necropsy, several selected tissues (brain, heart, liver, lungs) were harvested, fixed in 10% neutral buffered formalin, dehydrated, and embedded in paraffin by routine methods for histopathologic examination. Glass slides with affixed 6 micron tissue sections were prepared and stained with hemotoxylin and eosin (H&E) or Masson's trichrome.

monkeys = test: Systemic toxicity in monkeys; format: in vivo; settings: dose levels 1 mg/kg to 100 mg/kg
mice [4] = test: Systemic toxicity in mice; format: in vivo
[5] = tested on: collagen-induced platelet aggregation; test: Collagen-induced platelet aggregation; format: cell-based, human; settings: FIG. 7D
mice [6] = test: Tail bleeding time in mice; format: in vivo
Experimental: Mice (4-6 week old males, International Cancer Research (IRC)) were treated intravenously with 200 μL vehicle (PBS supplemented with 10% DMSO) or varying doses of WHI-P131 in […] vehicle. To evalulate bleeding and clotting times, treated mice were placed in a tube holder and tail bleeding was performed with a 2 mm cut from the protruding tail tip; the tail was placed vertically into 10 mL normal saline in a 37° C. water bath and bleeding times determined as previously described (Teng, et.al., 1997 Eur J Pharmacol 320(2-3), 161-6).

JAK3 = target: T1, JAK3 (Homo sapiens, UniProt P52333); test: JAK3 inhibition (statement, no method)
T1 sequence (P52333 1-1124): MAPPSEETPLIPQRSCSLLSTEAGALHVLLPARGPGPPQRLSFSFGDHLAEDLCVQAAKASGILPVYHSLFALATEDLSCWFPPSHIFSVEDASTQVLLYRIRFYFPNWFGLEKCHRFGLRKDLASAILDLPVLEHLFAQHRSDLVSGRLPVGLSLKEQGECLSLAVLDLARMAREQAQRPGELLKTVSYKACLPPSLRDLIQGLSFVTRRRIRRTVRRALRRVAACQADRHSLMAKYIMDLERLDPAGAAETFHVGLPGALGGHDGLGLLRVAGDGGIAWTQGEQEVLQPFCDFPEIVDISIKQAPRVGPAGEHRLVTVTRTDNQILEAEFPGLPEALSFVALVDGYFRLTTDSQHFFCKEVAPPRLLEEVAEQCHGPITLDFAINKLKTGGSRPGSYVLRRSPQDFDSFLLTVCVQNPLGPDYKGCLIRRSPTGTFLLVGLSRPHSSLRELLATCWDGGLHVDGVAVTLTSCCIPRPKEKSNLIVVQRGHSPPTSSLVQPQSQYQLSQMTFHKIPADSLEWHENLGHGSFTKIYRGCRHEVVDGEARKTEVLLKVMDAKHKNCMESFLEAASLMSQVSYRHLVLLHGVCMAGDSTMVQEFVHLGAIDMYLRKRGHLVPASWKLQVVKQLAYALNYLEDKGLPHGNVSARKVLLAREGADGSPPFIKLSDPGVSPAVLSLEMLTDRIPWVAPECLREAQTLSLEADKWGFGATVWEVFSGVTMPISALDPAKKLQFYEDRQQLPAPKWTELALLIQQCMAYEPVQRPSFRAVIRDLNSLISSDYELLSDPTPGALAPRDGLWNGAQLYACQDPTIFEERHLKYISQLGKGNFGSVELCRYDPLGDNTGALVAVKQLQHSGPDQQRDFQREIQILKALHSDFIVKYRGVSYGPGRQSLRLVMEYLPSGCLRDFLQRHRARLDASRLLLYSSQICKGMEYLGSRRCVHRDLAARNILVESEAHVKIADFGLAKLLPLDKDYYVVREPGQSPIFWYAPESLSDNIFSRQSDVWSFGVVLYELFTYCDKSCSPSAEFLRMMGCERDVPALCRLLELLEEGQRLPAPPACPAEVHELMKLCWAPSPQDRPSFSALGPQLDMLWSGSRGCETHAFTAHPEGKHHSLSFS

**Q.** For `COc1cc2ncnc(Nc3ccc(O)cc3)c2cc1OC` [WHI-P131, 4-(4′-Hydroxyphenyl)-amino-6,7-dimethoxyquinazoline], which “serotonin in platelet supernatants” value (platelets) is on record?
**A.** The value was 313 ± 19 nM.

**Q.** What about the “plasma concentrations achieved without toxicity” value [1] of the same compound?
**A.** Its value is ≥ 10 µM.

**Q.** And the IC50 ([2]; Platelet, human platelets, pretreatment 30 minutes, thrombin 0.1 U/mL, average, read-out: IC50, inhibition of thrombin-induced platelet aggregation)?
**A.** Its IC50 is 1500 nM.

**Q.** And the event-free survival outcome ([3]; mice, 25 mg/kg thromboplastin challenge)?
**A.** The event-free survival outcome was 30±15%.

**Q.** What about the “drug-related toxic lesions in organs (histopathology)” value ([3]; pretreated, thromboplastin-challenged mice) of the same compound?
**A.** Its value is “No drug-related toxic lesions were detected”.

**Q.** What about the “toxicity on systemic administration” value (monkeys) of the same compound?
**A.** The value was “not toxic”.

**Q.** And the “survival and health status without thromboplastin challenge” value (mice [4]; 20 control mice, 80 mg/kg, 48 hour observation)?
**A.** The value was “survived beyond the 48 hour observation period without any evidence of impaired health status or bleeding”.

**Q.** What about the “toxicity on systemic administration” value (mice [4]; mice, dose levels 1 mg/kg to 100 mg/kg) of the same compound?
**A.** The value was “not toxic”.

**Q.** What about the “effect on collagen-induced platelet aggregation” value [5] of the same compound?
**A.** Its value is “does not inhibit”.

**Q.** And the “average tail bleeding time” value (mice [6]; 20 mg/kg, N=5)?
**A.** The value was 9.4 ± 0.6 min.

**Q.** And the “average tail bleeding time” value (mice [6]; 40 mg/kg, N=10)?
**A.** The value was > 10 min.

**Q.** What about the “average tail bleeding time” value (mice [6]; 80 mg/kg, N=10) of the same compound?
**A.** Its value is > 10 min.

**Q.** Which “effect on thrombin-induced aggregation of platelets” value ([2]; even at 100 μM) does the source give for `COc1cc2ncnc(Nc3ccccc3)c2cc1OC` [WHI-P258] here?
**A.** Its value is “did not affect”.

**Q.** And the “effect on thrombin induced platelet aggregation (aggregation curves)” value ([2]; thrombin 0.1 U/mL, FIG. 7B/7C)?
**A.** The value was “had no effect”.

**Q.** What about the JAK3 inhibition (JAK3) of the same compound?
**A.** The JAK3 inhibition was “does not inhibit”.
